In patent US6335368B1, “Use of alverine for reducing wrinkles” (Societe L'Oreal S.A., priority 1999, dated 2002):
Where two headings read alike, the source gives them in different places.

Tested on: phrenic nerve/diaphragm isolated from rat (striated muscle)
Assay: Nerve/muscle junction (motor plate) model: isolated rat phrenic nerve/diaphragm preparation
Format: cell-based
Conditions: for inhibition at 100 µM: Rattus norvegicus
Protocol: Activity of Alverine in a model of nerve/muscle junction (motor plate) measured in a preparation of phrenic nerve/diaphragm isolated from rat (striated muscle) (Pollard B. J. et al, Br. J. Anaesth., 1988, 61, 419-424). The phrenic nerve and the diaphragm are carefully isolated and placed in a 50 ml tank filled with survival fluid (Krebs-Henseleit fluid) maintained at a temperature of 37° C. and oxygenated using an oxygen/CO2 mixture (95/5). The variations in tension of the diaphragm are recorded with an initial preload of several grams. After a relaxation period of 30 min., the diaphragm is stimulated indirectly via the phrenic nerve. On each preparation, the effect of the test products was evaluated in a first stage as regards the contractions induced by indirect stimulation via stimulation of the phrenic nerve (0.1 to 0.5 volts, 0.3 ms, 0.1 Hz) at increasing and cumulative concentrations from 10^−9 M to 10^−4 M. In the event of an effect at the end of the test, the diaphragm is stimulated directly in order to determine whether or not the inhibition of the neurotransmission results from a pre-junctional blockage or a post-junctional blockage.

CCN(CCCc1ccccc1)CCCc1ccccc1 [Alverine, di(phenylpropyl)ethylamine]
inhibition of contractions induced by the indirect stimulations (10^−4 M): completely inhibits
inhibition at 100 µM (10^−4 M Alverine, contractions induced by indirect stimulation via phrenic nerve, 1st study, read-out: % of inhibition, indirect stimulation): 100%
inhibition at 100 µM (10^−4 M Alverine, contractions induced by indirect stimulation via phrenic nerve, 2nd study, read-out: % of inhibition, indirect stimulation): 100%
inhibition at 100 µM (10^−4 M Alverine, direct stimulation of the diaphragm, 1st study, read-out: % of inhibition, direct stimulation): 61.4%
inhibition at 100 µM (10^−4 M Alverine, direct stimulation of the diaphragm, 2nd study, read-out: % of inhibition, direct stimulation): 42.2%
inhibition at 100 µM (10^−4 M, read-out: inhibition of contractions induced by the direct stimulations): ~50%
